Experimental data: ChEMBL document CHEMBL5108038, “Development of Inhibitors Targeting the V-Domain Ig Suppressor of T Cell Activation Signal Pathway” (J Med Chem, 2022)
pEC50, pIC50, pKd: −log10 of the molar value.

Tests used:
[1] = Inhibition of PD-L1 in human PBMC; assay type: cell-based
[2] = molecular target: Programmed cell death protein 1/Programmed cell death 1 ligand 1 (Homo sapiens) (UniProt Q15116+Q9NZQ7); experiment: Inhibition of recombinant PD-1/PD-L1 signalling route (unknown origin) at 10 uM by HTRF assay relative to control; assay type: protein-complex assay
[3] = molecular target: T1, V-type immunoglobulin domain-containing suppressor of T-cell activation (Homo sapiens) (UniProt Q9H7M9); experiment: Inhibition of recombinant VISTA signalling pathway (unknown origin) at 10 uM by HTRF assay relative to control
T1 sequence (whole entry): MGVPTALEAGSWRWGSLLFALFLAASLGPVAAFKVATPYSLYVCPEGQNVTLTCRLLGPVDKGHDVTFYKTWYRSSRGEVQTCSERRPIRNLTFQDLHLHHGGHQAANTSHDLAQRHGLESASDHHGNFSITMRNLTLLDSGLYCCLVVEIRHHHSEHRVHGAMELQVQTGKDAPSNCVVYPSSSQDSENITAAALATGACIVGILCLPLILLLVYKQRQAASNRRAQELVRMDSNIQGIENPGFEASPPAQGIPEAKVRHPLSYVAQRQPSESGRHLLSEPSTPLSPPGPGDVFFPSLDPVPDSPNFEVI

[4] = Inhibition of VISTA/VSIG3 protein protein interaction (unknown origin) by FRET method; design: species or system Homo sapiens
[5] = Antitumor immunity in PBMC (unknown origin) assessed as inhibition of VSIG8 binding to VISTA; assay type: functional, cell-based
[6] = molecular target: T2, V-set and immunoglobulin domain-containing protein 8 (Homo sapiens, UniProt P0DPA2); experiment: Binding affinity to human VSIG8 assessed as dissociation constant by MST method
T2 sequence (P0DPA2 whole entry): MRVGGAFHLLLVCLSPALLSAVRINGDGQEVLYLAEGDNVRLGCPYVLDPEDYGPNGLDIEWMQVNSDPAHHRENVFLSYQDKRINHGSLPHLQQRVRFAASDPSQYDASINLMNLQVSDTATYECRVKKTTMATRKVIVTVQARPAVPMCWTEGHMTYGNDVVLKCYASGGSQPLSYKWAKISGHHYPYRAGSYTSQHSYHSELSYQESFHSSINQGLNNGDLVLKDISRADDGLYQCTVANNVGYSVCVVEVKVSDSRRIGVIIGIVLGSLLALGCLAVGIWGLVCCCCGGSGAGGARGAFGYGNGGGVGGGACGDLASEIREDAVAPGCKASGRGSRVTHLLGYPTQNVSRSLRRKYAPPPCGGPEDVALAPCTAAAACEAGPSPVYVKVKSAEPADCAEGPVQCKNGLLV

[7] = molecular target: T3, V-type immunoglobulin domain-containing suppressor of T-cell activation (Homo sapiens, UniProt Q9H7M9); experiment: Binding affinity to VISTA (unknown origin) assessed as dissociation constant by MST method
T3 sequence (Q9H7M9 whole entry): T1 sequence (whole entry)

**Q.** With `C[C@@H](O)[C@H](NC(=O)N[C@@H](CC(N)=O)c1nc([C@H](N)CO)no1)C(=O)O` as the compound, how does the pEC50 [1] read?
**A.** 7.18

**Q.** Which inhibition [2] does the source give for `C[C@@H](O)[C@H](NC(=O)C1(C(=O)N[C@@H](CC(N)=O)c2nc([C@H](N)CO)no2)CCCC1)C(=O)O` here?
**A.** 92%

**Q.** And the inhibition [3]?
**A.** 81%

**Q.** With `CN(C)c1n/c(=N\Cc2ccco2)ss1` as the compound, how does the pIC50 [4] read?
**A.** 5.32

**Q.** With `COc1cc(NC(=O)Nc2c(-c3ccncc3)[nH]c3ccc(Cl)cc23)cc(OC)c1` as the compound, how does the pEC50 [5] read?
**A.** 5.83

**Q.** What about the pKd [6] of the same compound?
**A.** 5.17

**Q.** With `Cc1ccc2nc(Nc3nc(O)cc(CSc4nnc(C)s4)n3)nc(C)c2c1` as the compound, how does the pKd [7] read?
**A.** 6.19
